Where a SMILES comes first, the peptide text is derived from it.
Columns and labels:
[1] = test system: B16-F10 (Murine skin malignant melanoma); assay: MTT cytotoxicity, B16-F10; type: cell-based; settings: B16-F10, 24 hours incubation
Description: (§1) The MTT assay is a colorimetric method for measuring the activity of enzymes in living cells that reduces Thiazolyl blue tetrazolium bromide (MTT) to formazan dyes showing a purple color. In this embodiment, a colorimetric 3-(4.5-dimethylthiazol-2-yl)-2.5-diphenyltetrazodium bromide (MTT) viability assay was used to assess the in vitro cytotoxicity of oncolytic peptides.
(§2) The half inhibition concentration (IC50) is the concentration required by the oncolytic peptides to reach fifty percent inhibition. In one embodiment, the oncolytic peptides were used for IC50 test via MTT colorimetric assay.
Human lung cancer lines PC9 and A549 and murine pancreatic cancer cell line Panc02 were cultured in RPMI medium supplemented with 10% fetal bovine serum and antibiotic in this embodiment. Additionally, murine hepatoma cell line Hepa 1-6, murine melanoma cell line B16-F10, murine fibrosarcoma cell line MN-11, murine mammary cancer cell line E0771 and human diploid fibroblast (HFW) were cultured in DMEM medium supplemented with 10% fetal bovine serum and antibiotic. Cells were cultured in a humidified incubator containing 5% CO2 at 37° C.
(§3) All cancer cell lines were seeded in a 96-well plate with a concentration of 5000-8000 cells/100 μl/well and incubated for 24 hrs. After medium was removed, 100 μl fresh medium containing peptide (ranging from 50 μM to 0.8 μM) was added to the wells. Following 24 hours incubation, fresh medium with MTT (0.5 mg/ml) was replaced and incubated for 3 hours. After medium/MTT was removed, DMSO was added at 100 μl for dissolving the formazan crystal. Cell survival rate was calculated by measuring the absorbance at 540 nm using a Multi-labeled Microplate Reader (Sunrise™, TECAN).

[2] = Peptide stability in serum; type: in vitro ADME; settings: 25% (vol/vol) bovine calf serum
Description: Since this kind of peptide is highly toxic, the hope is that the peptide can be decomposed after inducing cancer cells to release danger-associated molecular patterns (DAMPs), and will not stay in the body for too long. After exposure to 25% (vol/vol) bovine calf serum, the residues of peptides were analyzed by liquid chromatography, and the stability at different time points was calculated.

[3] = test system: C9 (Human oral cancer cell); assay: MTT cytotoxicity, C9; type: cell-based; settings: C9, 24 hours incubation
Description: as §1, §2, §3

[4] = test system: A375 (human malignant melanoma); assay: MTT cytotoxicity, A375; type: cell-based; settings: A375, 24 hours incubation
Description: as §1, §2, §3

[5] = test system: MN-11 fibrosarcoma; type: in vivo; settings: MN-11 tumor-bearing C57BL/6 mice
Description: FIGS. 4A-4B are schematic diagrams of MN-11 fibrosarcoma experiments. FIG. 4A: The right flank of the mouse was administrated with SEQ ID NO:9, and the left flank of the mouse was untreated (tumor only). […] Palpable tumors (100 mm^3) were injected (IT.) with single doses of SEQ ID NO:9 dissolved in PBS (1.0 mg peptide/50 μl PBS) once a day for 5 consecutive days, and the vehicle control was saline only (0.9% NaCl).
Female C57BL/6 mice (4- to 6-week old) as allogeneic model animals were purchased from BioLASCO Taiwan Co., Ltd. and maintained in a specific pathogen-free and controlled environment. During the experiments, female mice, weighing 18.0-24.0 g each, were kept in groups of 4 to 6 animals per cage under climate-controlled conditions, with 12 h light/dark cycles and an ambient temperature. The mice were housed in an enriched individually ventilated cage (IVC) system with free access to standard rodent chow and water ad libitum. The animals were anesthetized during the experimental procedures with 2.5% isoflurane gas. The animals were monitored daily. […]
Tumor size was measured 3 times a week using a caliper, and the volume of tumors was calculated using the following formula: Tumor size (mm^3)=0.5×(width^2×length). […] The survival rates of tumor-bearing mice were observed and recorded continuously until all animals died. […]

[6] = test system: RBC (Human blood cell); assay: Cytotoxicity, RBC; type: cell-based
Description: as §2

[7] = test system: HCT-15 (Human colorectal cancer); assay: MTT cytotoxicity, HCT-15; type: cell-based; settings: HCT-15, 24 hours incubation
Description: as §1, §2, §3

With `CC(C)C[C@H](NC(=O)[C@H](Cc1ccc2ccccc2c1)NC(=O)[C@H](CCCCN)NC(=O)[C@H](CC(C)C)NC(=O)[C@H](Cc1c[nH]c2ccccc12)NC(=O)[C@H](CCCCN)NC(=O)[C@H](CCCNC(=N)N)NC(=O)[C@H](Cc1c[nH]c2ccccc12)NC(=O)[C@H](CCCNC(=N)N)NC(=O)[C@H](CCCNC(=N)N)NC(=O)[C@H](CCCCN)NC(=O)[C@H](CCCCN)NC(=O)[C@H](CCCCN)NC(=O)[C@@H](N)CCCCN)C(=O)N[C@@H](C)C(=O)N[C@@H](CCCCN)C(N)=O` [SEQ ID NO: 9, KKKK-RR-WRK-WLK-Nal-LA-K-NH2] (HELM PEPTIDE1{K.K.K.K.R.R.W.R.K.W.L.K.[O=C([C@H](Cc1ccc2ccccc2c1)N[*:1])[*:2]].L.A.K.[am]}$$$$V2.0; N-terminus assumed) the IC50 [1] was 7.16 µM, the “Serum stability (residual peptide)” value ([2]; 0 hr) was 100.00% and the remaining at 0.5 h ([2]; 0.5 hr, read-out: Serum stability (residual peptide)) was 90.7%. The remaining at 1 h ([2]; 1 hr, read-out: Serum stability (residual peptide)) was 76.2%, the remaining at 2 h ([2]; 2 hr, read-out: Serum stability (residual peptide)) was 77.9% and the remaining at 4 h ([2]; 4 hr, read-out: Serum stability (residual peptide)) was 70.9%. For the same compound, the remaining at 6 h ([2]; 6 hr, read-out: Serum stability (residual peptide)) was 74.2%, the remaining at 8 h ([2]; 8 hr, read-out: Serum stability (residual peptide)) was 55.8% and the IC50 [3] was 6.43 µM. For the same compound, the IC50 [4] was 3.84 µM, the “Survival (lifespan)” value ([5]; IT. 1.0 mg once a day for 5 days, vs untreated controls) was “extended the lifespan” and the “Tumor growth, treated tumor (right side)” value ([5]; IT. 1.0 mg peptide/50 μl PBS once a day for 5 consecutive days, vs saline control) was “significantly inhibited unilateral (right side) tumor growth”. It also gave an IC50 [6] of 25.7 µM and an IC50 [7] of 2.42 µM.

Source: patent US20250250298A1, “ONCOLYTIC PEPTIDE AND USE THEREOF” (Rise Biopharmaceuticals Inc., priority 2022, published 2025)
